Series [1] has as its target Xanthine dehydrogenase/oxidase (Homo sapiens, UniProt P47989).
Series [2] is described as follows: Solubility of the compound in phosphate buffer at pH 7.4.
Series [3] is described as follows: Intrinsic clearance in human liver microsomes. The class given is ADME. Particulars: read-out: CLH. On the technique in general: Liver microsomes are a subcellular fraction often used to study metabolism.
Series [4] is described as follows: Apparent permeability across apical side to basolateral side in human Caco2 cells. Particulars: Caco-2.
A short description of series [5]: Apparent permeability across basolateral side to apical side in human Caco2 cells. Particulars: Caco-2. For orientation: Passage across Caco-2 layers is used to estimate intestinal permeability.
In series [6] the test system is Rattus norvegicus. Kind of series: Volume of distribution at steady state in Han Wistar rat at […]. Format: ADME, organism-based. Particulars: in vivo.
A short description of series [7]: Cmax in Han Wistar rat at 6 umol/kg, po. Format: ADME, organism-based. The arrangement: dose 6 umol/kg, route oral. Particulars: in vivo.
A short description of series [8]: Half life in Han Wistar rat at 1 umol/kg, iv. Format: ADME, organism-based. Particulars: in vivo.
Series [9] is described as follows: Clearance in Han Wistar rat at 1 umol/kg, iv. Particulars: in vivo. The class given is ADME, organism-based.
Series [10] can be described thus: Oral bioavailability in Han Wistar rat at 6 umol/kg. Particulars: in vivo. The class given is ADME, organism-based.
Series [11] in a line: Plasma concentration in potassium oxonate-induced hyperuricemic Sprague-Dawley rat model at 10 mg/kg, po measured after 2 hrs. Format: ADME, organism-based. On the set-up: dose 10 mg/kg, route oral.
The test system of series [12] is Rattus norvegicus. Briefly: Antihyperuricemic activity in potassium oxonate-induced hyperuricemic Sprague-Dawley rat model assessed as decrease of uric acid level in serum at 10 mg/kg, po measured after 1 hr relative to vehicle-treated control. Format: functional. The arrangement: scale not given: the % may be the effect or the level left.
Series [13] deals with Rattus norvegicus. Briefly: Antihyperuricemic activity in potassium oxonate-induced hyperuricemic Sprague-Dawley rat model assessed as decrease of uric acid level in serum at 10 mg/kg, po measured after 2 hrs relative to vehicle-treated control. Format: functional. The arrangement: scale not given: the % may be the effect or the level left.
The target of series [14] is Xanthine dehydrogenase/oxidase (Rattus norvegicus, UniProt P22985). Briefly: Inhibition of rat xanthine oxidase.
Sequence of Xanthine dehydrogenase/oxidase (Rattus norvegicus, UniProt P22985) (P22985 whole entry): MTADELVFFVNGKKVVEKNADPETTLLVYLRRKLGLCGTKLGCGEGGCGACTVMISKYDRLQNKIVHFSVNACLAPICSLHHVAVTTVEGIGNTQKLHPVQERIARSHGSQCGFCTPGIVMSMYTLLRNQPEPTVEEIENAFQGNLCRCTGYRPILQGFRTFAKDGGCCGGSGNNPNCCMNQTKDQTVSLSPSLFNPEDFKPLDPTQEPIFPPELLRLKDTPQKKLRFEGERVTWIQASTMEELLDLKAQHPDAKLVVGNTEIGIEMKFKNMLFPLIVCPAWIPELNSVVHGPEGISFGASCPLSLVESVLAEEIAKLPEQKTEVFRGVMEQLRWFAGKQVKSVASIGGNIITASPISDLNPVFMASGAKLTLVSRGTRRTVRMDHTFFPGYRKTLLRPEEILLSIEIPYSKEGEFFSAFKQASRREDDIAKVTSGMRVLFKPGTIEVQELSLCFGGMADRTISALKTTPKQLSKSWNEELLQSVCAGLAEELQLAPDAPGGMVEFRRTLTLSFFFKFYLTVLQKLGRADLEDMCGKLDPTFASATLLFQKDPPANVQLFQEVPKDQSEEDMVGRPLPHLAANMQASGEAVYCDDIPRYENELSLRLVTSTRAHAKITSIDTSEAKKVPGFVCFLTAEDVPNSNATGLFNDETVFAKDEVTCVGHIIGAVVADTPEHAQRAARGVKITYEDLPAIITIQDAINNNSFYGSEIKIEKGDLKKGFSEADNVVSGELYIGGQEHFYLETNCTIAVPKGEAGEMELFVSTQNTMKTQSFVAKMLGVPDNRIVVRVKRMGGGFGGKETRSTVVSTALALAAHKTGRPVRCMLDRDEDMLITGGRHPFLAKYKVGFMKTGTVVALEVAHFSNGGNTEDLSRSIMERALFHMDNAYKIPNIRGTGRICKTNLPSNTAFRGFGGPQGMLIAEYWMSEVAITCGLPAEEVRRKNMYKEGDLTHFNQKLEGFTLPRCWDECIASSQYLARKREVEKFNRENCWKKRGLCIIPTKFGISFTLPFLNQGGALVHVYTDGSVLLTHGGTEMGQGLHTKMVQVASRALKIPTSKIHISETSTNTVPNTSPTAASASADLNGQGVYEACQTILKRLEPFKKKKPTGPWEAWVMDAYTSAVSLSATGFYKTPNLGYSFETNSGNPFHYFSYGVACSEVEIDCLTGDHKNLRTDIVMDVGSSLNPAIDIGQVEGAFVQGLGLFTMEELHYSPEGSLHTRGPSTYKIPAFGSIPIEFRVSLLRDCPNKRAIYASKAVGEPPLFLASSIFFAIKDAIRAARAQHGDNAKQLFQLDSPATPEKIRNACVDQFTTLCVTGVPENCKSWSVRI
The subject of a further series is Hepatocyte. Briefly: Intrinsic clearance in human hepatocytes assessed per million cells. The class given is ADME, cell-based.
Series [15] has as its target T1, Xanthine dehydrogenase/oxidase (Bos taurus, UniProt P80457). Briefly: Inhibition of bovine xanthine oxidase.
In series [16] the target is T1, Xanthine dehydrogenase/oxidase. Kind of series: Competitive inhibition of bovine xanthine oxidase.
Series [17] has the same target. Kind of series: Reversible inhibition of bovine xanthine oxidase. Particulars: cattle.
In the next series the test system is Plasma. Kind of series: Antihyperuricemic activity in potassium oxonate-induced hyperuricemic Sprague-Dawley rat model assessed as decrease of uric acid level in serum at 30 mg/kg, po measured after 2 hrs relative to vehicle-treated control. Format: functional. On the set-up: scale not given: the % may be the effect or the level left.
Series [18] deals with Rattus norvegicus. Briefly: Antihyperuricemic activity in potassium oxonate-induced hyperuricemic Sprague-Dawley rat model assessed as decrease of uric acid level in serum at 30 mg/kg, po measured after 1 hr relative to vehicle-treated control. Format: functional. The arrangement: scale not given: the % may be the effect or the level left.

pIC50: −log10 of the molar value. Values after ≈ are worked out from the molar mass of the structure shown.

For orientation: pIC50 means −log10 of the IC50, conventionally taken in molar units. As usually defined, the solubility is the concentration that dissolves in the medium under given conditions. Usually Papp A→B stands for the apparent permeability from the apical to the basolateral side of a cell layer. Broadly, the Papp B→A is how fast a substance crosses the layer from the basolateral side. By Cmax is commonly meant the maximum level reached in the sampled fluid or tissue. As a reminder, the half-life is the time needed for the level to fall by half in the phase considered. As a reminder, the clearance is the volume of plasma or blood freed of the substance per unit of time. As usually defined, the bioavailability is the share of a dose that reaches the circulation, judged against a reference dose that is usually intravenous.

Sequence of Xanthine dehydrogenase/oxidase (Homo sapiens, UniProt P47989) (P47989 whole entry): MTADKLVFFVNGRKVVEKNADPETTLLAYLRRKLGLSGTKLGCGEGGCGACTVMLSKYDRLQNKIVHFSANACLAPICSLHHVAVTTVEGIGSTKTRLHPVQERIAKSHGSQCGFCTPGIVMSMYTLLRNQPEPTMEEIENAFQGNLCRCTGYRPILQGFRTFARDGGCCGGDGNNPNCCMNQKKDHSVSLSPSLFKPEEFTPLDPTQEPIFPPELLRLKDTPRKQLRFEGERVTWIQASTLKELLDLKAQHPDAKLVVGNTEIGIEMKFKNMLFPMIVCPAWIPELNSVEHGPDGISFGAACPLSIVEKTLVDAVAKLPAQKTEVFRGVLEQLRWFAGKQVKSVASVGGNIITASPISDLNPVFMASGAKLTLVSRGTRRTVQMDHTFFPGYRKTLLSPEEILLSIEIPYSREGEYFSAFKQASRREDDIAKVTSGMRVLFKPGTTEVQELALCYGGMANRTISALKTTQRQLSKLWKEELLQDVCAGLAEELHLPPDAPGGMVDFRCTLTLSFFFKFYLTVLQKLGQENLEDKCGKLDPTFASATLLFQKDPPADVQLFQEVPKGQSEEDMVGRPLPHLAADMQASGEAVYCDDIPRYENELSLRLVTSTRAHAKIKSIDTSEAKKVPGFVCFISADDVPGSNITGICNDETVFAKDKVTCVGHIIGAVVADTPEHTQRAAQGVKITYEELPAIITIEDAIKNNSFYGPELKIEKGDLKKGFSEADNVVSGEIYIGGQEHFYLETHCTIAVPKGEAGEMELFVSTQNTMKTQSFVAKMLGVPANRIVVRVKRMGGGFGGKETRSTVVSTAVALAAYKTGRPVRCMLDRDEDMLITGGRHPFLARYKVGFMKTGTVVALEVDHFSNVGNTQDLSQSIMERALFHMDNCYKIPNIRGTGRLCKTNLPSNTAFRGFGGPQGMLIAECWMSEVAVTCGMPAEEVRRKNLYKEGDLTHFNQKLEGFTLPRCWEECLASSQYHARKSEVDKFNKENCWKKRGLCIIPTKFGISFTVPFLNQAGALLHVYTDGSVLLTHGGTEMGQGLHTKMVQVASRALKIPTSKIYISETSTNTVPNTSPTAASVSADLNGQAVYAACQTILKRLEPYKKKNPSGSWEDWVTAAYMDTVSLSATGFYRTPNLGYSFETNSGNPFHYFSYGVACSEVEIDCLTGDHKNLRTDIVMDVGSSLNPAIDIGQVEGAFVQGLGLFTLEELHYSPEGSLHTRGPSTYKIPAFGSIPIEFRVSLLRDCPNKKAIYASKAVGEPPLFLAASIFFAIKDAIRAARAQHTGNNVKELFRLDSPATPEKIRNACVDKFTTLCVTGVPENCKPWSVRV
T1 sequence (P80457 whole entry): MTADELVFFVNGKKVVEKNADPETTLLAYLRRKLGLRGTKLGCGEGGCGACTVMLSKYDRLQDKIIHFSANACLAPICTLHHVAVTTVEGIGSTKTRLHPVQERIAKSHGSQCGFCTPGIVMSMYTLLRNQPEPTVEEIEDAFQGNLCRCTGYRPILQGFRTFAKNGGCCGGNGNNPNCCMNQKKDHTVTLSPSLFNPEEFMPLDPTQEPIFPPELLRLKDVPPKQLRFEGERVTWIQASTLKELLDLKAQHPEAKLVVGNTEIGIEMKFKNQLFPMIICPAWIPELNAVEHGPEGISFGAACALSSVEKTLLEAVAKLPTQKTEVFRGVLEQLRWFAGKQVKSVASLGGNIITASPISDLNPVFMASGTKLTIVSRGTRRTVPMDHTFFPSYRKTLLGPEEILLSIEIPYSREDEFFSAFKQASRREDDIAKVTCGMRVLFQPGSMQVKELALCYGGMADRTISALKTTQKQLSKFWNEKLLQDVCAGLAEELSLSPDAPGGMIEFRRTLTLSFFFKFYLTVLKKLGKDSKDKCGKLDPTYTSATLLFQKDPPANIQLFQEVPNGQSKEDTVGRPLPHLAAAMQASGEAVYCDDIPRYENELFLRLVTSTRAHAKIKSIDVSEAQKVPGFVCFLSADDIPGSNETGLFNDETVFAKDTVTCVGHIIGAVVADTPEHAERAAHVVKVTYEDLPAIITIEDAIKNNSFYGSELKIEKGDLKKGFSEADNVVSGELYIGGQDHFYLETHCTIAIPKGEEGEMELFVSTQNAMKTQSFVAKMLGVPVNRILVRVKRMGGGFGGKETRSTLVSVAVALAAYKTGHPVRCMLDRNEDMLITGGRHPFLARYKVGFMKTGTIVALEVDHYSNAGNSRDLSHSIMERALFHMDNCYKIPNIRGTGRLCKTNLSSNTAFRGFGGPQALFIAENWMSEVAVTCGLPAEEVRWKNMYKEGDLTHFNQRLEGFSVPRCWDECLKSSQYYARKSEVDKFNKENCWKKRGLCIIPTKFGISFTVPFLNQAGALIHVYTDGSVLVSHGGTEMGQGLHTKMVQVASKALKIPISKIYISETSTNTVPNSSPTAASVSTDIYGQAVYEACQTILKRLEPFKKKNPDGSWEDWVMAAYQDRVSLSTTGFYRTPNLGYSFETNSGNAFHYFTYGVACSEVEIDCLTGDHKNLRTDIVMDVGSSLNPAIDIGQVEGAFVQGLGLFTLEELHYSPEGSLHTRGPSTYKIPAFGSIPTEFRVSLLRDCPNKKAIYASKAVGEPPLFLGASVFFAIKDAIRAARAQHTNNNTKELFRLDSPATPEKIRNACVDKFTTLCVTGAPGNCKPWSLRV

With `COc1ccc(-c2cnc3nc[nH]c(=O)c3n2)cc1`, the pIC50 in [1] was 4.80.

`CC(C)COc1ccc(-c2cc(=O)[nH]c(N)n2)cc1` had a solubility in series [2] of 23 µM (≈ 5.96 µg/mL). Also, in series [3], the microsomal CLint was determined as 42 µL/min/mg.

For `CC(C)COc1ccc(-c2cc(=O)[nH]c(N)n2)cc1C#N`, the concentration in solution in series [2] (solubility) came to 140 µM (≈ 39.8 µg/mL). In addition, in [3], the microsomal CLint amounted to 7.9 µL/min/mg.

In series [2], `N#Cc1cc(-c2nc(N)[nH]c(=O)c2Cl)ccc1OCC1CCOC1` (stereo unspecified) gave a solubility of 41 µM (≈ 14.2 µg/mL). In addition, the apparent permeability from apical to basolateral (Papp A→B) in [4] worked out at 0.2 ×10⁻⁶ cm/s. Also, the Papp B→A in [5] came out at 24 ×10⁻⁶ cm/s. Further, the microsomal CLint in [3] came to 3.4 µL/min/mg.

Regarding `Cc1cc(-c2nc(N)[nH]c(=O)c2Cl)cc(C#N)c1OCC1CCOC1` (stereo unspecified), the concentration in solution in series [2] (solubility) was 83 µM (≈ 29.9 µg/mL). Moreover, the Papp A→B in [4] is 2.1 ×10⁻⁶ cm/s. In addition, in [5], the Papp B→A is 35 ×10⁻⁶ cm/s. Moreover, in series [3], the microsomal CLint worked out at 5.3 µL/min/mg.

Regarding `Nc1nc(-c2ccc(OCC3CCOC3)c(C(F)(F)F)c2)c(Cl)c(=O)[nH]1` (stereo unspecified), in [2], the solubility is 24 µM (≈ 9.35 µg/mL). The same compound came in with a Vdss in the series with Rattus norvegicus [6] of 5.7 L/kg. In series [4], the Papp A→B was determined as 8.4 ×10⁻⁶ cm/s. Further, the concentration in [7] peaked (Cmax) at 270 nM. The basolateral-to-apical permeability (Papp B→A) in series [5] was 69 ×10⁻⁶ cm/s. For the same compound, in [3], the microsomal CLint was 7.5 µL/min/mg. In series [8], this compound showed a half-life of 10 h. Moreover, the clearance in series [9] stood at 15 mL/min/kg. Also, the bioavailability in series [10] came to 33%.

In the case of `Nc1nc(-c2ccc(OCC3CCOC3)c(OC(F)(F)F)c2)c(Cl)c(=O)[nH]1` (stereo unspecified), in [2], the concentration in solution (solubility) came to 45 µM (≈ 18.3 µg/mL). Moreover, in the series on Rattus norvegicus [6], the Vdss amounted to 13 L/kg. For the same compound, the Papp A→B in [4] is 6.4 ×10⁻⁶ cm/s. This compound came in with a Cmax in series [7] of 80 nM. The concentration at 2 h in series [11] worked out at 370 nM. For the same compound, the Activity came to 55% with Rattus norvegicus [12] and 54% with Rattus norvegicus [13]. Further, in [5], the apparent permeability from basolateral to apical (Papp B→A) came out at 74 ×10⁻⁶ cm/s. In series [3], the microsomal CLint is 18 µL/min/mg. The half-life in [8] was 13.2 h. Besides, in series [9], the clearance was found to be 35 mL/min/kg. The compound also showed a negative-log IC50 (pIC50) in series [14] of 8.10. In series [10], this compound yielded a bioavailability of 22%.

Take `Nc1nc(-c2cccc(C(F)(F)F)c2)cc(=O)[nH]1`: the solubility in series [2] worked out at 36 µM (≈ 9.19 µg/mL).

In series [2], `Nc1nc(-c2cccc(OC(F)(F)F)c2)cc(=O)[nH]1` yielded a solubility of 330 µM (≈ 89.5 µg/mL). In series [3], the microsomal CLint was 3.2 µL/min/mg.

The compound `Cc1cc(C#N)cc(-c2cc(=O)[nH]c(N)n2)c1` had a solubility in [2] of 350 µM (≈ 79.2 µg/mL). For the same compound, the microsomal CLint in series [3] came to 1.2 µL/min/mg.

On to `N#Cc1cc(-c2cc(=O)[nH]c(N)n2)cc(C(F)(F)F)c1`, for which the solubility in [2] was 430 µM (≈ 120 µg/mL). Besides, in [3], the microsomal CLint came to 0.2 µL/min/mg.

The compound `Nc1nc(-c2ccc(OCc3ccccc3)cc2)cc(=O)[nH]1` displayed a solubility in [2] of under 1 µM.

The compound `CC(C)(C)COc1ccc(-c2cc(=O)[nH]c(N)n2)cc1` showed a solubility in series [2] of 3.1 µM (≈ 0.847 µg/mL). In series [3], the microsomal CLint was found to be 6.9 µL/min/mg.

In turn, `Nc1nc(-c2ccc(OCCCCO)cc2)cc(=O)[nH]1` registered a solubility in [2] of 95 µM (≈ 26.2 µg/mL). Moreover, the microsomal CLint in [3] stood at 6.8 µL/min/mg.

As for `Nc1nc(-c2ccc(OCC3CCOC3)cc2)cc(=O)[nH]1` (stereo unspecified), the concentration in solution in series [2] (solubility) was 58 µM (≈ 16.7 µg/mL). Besides, the microsomal CLint in series [3] turned out to be 21 µL/min/mg.

For `CC(C)COc1ccc(-c2nc(N)[nH]c(=O)c2C#N)cc1C#N`, the concentration in solution in series [2] (solubility) was 14 µM (≈ 4.33 µg/mL). Further, the Vdss in the series on Rattus norvegicus [6] was 2.5 L/kg. In series [4], the Papp A→B was 0.1 ×10⁻⁶ cm/s. In series [7], this compound showed a Cmax of 70 nM. For the same compound, the Papp B→A in series [5] was 30 ×10⁻⁶ cm/s. Moreover, the microsomal CLint in [3] was found to be 4.1 µL/min/mg. Moreover, the half-life in [8] is 19 h. In series [9], this compound returned a clearance of 1.8 mL/min/kg. In series [10], this compound gave a bioavailability of 5.5%.

As to `CC(C)COc1ccc(-c2nc(N)[nH]c(=O)c2Cl)cc1C#N`, the microsomal CLint in series [3] came out at 16 µL/min/mg.

`CNc1nc(-c2ccc(OCC(C)C)c(C#N)c2)c(C#N)c(=O)[nH]1` registered a solubility in series [2] of 37 µM (≈ 12 µg/mL). The microsomal CLint in [3] worked out at 3.6 µL/min/mg.

As to `N#Cc1cc(-c2nc(N)[nH]c(=O)c2Cl)ccc1OCCCCO`, the concentration in solution in series [2] (solubility) came to 93 µM (≈ 31.1 µg/mL). In addition, the apparent permeability from apical to basolateral (Papp A→B) in series [4] amounted to 0.2 ×10⁻⁶ cm/s. Moreover, the Papp B→A in series [5] was 25.6 ×10⁻⁶ cm/s. In series [3], the microsomal CLint is 1.7 µL/min/mg.

With `N#Cc1cc(-c2nc(N)[nH]c(=O)c2C#N)ccc1OCC1CC1`, the solubility in series [2] was 45 µM (≈ 13.8 µg/mL). The Papp A→B in series [4] came out at 0.1 ×10⁻⁶ cm/s. The Papp B→A in series [5] stood at 31 ×10⁻⁶ cm/s. Moreover, in [3], the microsomal CLint worked out at 1.7 µL/min/mg.

Regarding `N#Cc1c(-c2ccc(OCC3CCOC3)c(OC(F)(F)F)c2)nc(N)[nH]c1=O` (stereo unspecified), the solubility in series [2] was 86 µM (≈ 34.1 µg/mL). Besides, the Papp A→B in series [4] worked out at 0.1 ×10⁻⁶ cm/s. Also, the Papp B→A in [5] turned out to be 29 ×10⁻⁶ cm/s. For the same compound, in [3], the microsomal CLint is 21 µL/min/mg.

The compound `CC(C)(C)COc1ccc(-c2nc(N)[nH]c(=O)c2C#N)cc1OC(F)(F)F` had a solubility in series [2] of 6 µM (≈ 2.29 µg/mL). Also, the Papp A→B in series [4] worked out at 0.4 ×10⁻⁶ cm/s. In addition, the Papp B→A in [5] came out at 4.1 ×10⁻⁶ cm/s. Moreover, in [3], the microsomal CLint was found to be 36 µL/min/mg.

On to `CC(C)COc1ccc(-c2nc(N)[nH]c(=O)c2C#N)cc1C(F)(F)F`, for which, in series [2], the solubility was determined as 1.2 µM (≈ 0.423 µg/mL). Besides, the Papp A→B in series [4] was 1.7 ×10⁻⁶ cm/s. The Papp B→A in [5] turned out to be 23 ×10⁻⁶ cm/s. Besides, in [3], the microsomal CLint was 8.5 µL/min/mg.

With `CC(=O)Nc1ccc(-c2cc(=O)[nH]c(N)n2)cc1`, the CLH in the series on Hepatocyte worked out at 2.7 µL/min/1e6 cells.

On to `c1ccc(-c2nn3c(-c4cnccn4)nnc3s2)cc1`, for which the pIC50 in series [15] is 7.10.

With `O=c1[nH]ccc2nc(-c3cccc(C(F)(F)F)c3)cn12`, in [16], the pIC50 is 6.40. For the same compound, the “inhibition (INH)” value in series [17] is reported as “Active”.

Consider `CC(=O)Nc1nc(-c2ccccc2)cc(=O)[nH]1`, for which, in [1], the pIC50 is under 4.00.

In [1], `CS(=O)(=O)Nc1nc(-c2ccccc2)cc(=O)[nH]1` showed a negative-log IC50 (pIC50) of under 4.00.

`Cn1c(N)nc(-c2ccccc2)cc1=O` showed a pIC50 in [1] of under 4.00.

For `Oc1ncnc2[nH]ncc12` [ALLOPURINOL], the Activity in the series on Plasma came out at 94%; in the series on Rattus norvegicus [18] it was 87%.

In turn, `Nc1nc(-c2ccccc2)c(Br)c(=O)[nH]1` [BROPIRIMINE] showed a pIC50 in series [1] of 6.00.

Regarding `Cc1nc(-c2ccc(OCC(C)C)c(C#N)c2)sc1C(=O)O` [FEBUXOSTAT], the pIC50 in [1] is 8.90; in series [14], 8.40. For the same compound, the concentration at 2 h in series [11] turned out to be 8700 nM. Also, the Activity with Rattus norvegicus [12] was 78%; in the series with Rattus norvegicus [13], 75%.

(Values after ChEMBL document CHEMBL3124800, “HTS followed by NMR based counterscreening. Discovery and optimization of pyrimidones as reversible and competitive inhibitors of xanthine oxidase” (Bioorg Med Chem Lett, 2014).)
